Like-named read-outs stand apart in the source and are kept apart here. Where a SMILES comes first, the peptide text is derived from it. Bridges are numbered along the chain shown (N, C = ends). [ ]: non-standard residue; d: D form. The star is where a group is joined. BODIPYFLEthylmaleimide = Cc1cc(C)n2c1C=C1C=CC(CCC(=O)NCCN3C(=O)CC(*)C3=O)=[N+]1[B-]2(F)F; R8 = C=CCCCCCC[C@@](C)(N)C(=O)O; S5 = C=CCCC[C@](C)(N)C(=O)O A value given as a limit tells only on which side of the number the result lay.

Results on six molecules are retold here after patent US11884708B2, “Stapled peptide inhibitors of nemo as potential anti-inflammatory and anti-cancer drugs” (INSTITUT PASTEUR, priority 2015, dated 2024).

A short description of series [1]: Temperature-induced denaturation followed by CD. The class given is physicochemical. The conditions noted are these: 30 μM or 300 μM, ΔCp ≈ 0; for Tm: thermal denaturation by CD; for ΔH: van't Hoff enthalpy change at Tm. The method, then:
Temperature-induced denaturation experiments were performed by measuring the ellipticity at 222 nm from 1° C. to 95° C. in 1° C. steps, at a rate of 1° C./min, with a 2 nm bandwidth. Thermodynamic parameters including the melting temperature (Tm) and the van't Hoff enthalpy change at the melting temperature (ΔHm) were determined by fitting the denaturation curves with the Gibbs-Helmholtz equation as described elsewhere, [10]. The heat capacity change (ΔCp) was assumed to be 0 as judged by ΔHm which yielded similar values within 10% at two independent peptide concentrations (30 and 300 μM). The ellipticity was converted to differential extinction coefficient Δε (M^−1·cm^−1) per residue taking into account the peptide concentration determined by amino acid analysis.
Thermal stability of the peptides was also investigated by performing thermal denaturation profiles followed by CD (FIGS. 1 C and D and Table III). […] Indeed, the helicity of UBI-Aib (49%) is only 1.16-fold increased at 1° C. compared to UBI (42%), while its melting temperature (Tm=−8° C.) is 2.25 times higher than that of UBI (Tm=−18° C.).

Series [2] is described as follows: CD spectroscopy, α-helical content. The class given is physicochemical. As to conditions: 50 μM peptide, phosphate buffer pH 7.0, UBI in TFE taken as 100%.
The next series concerns the target CC2-LZ domain of NEMO (Mus musculus, UniProt O88522). The series is described as follows: Fluorescence anisotropy/polarization binding assay. The conditions noted are these: for Kd: fixed peptide concentration 0.1 μM; for Binding affinity (FP) at 10 μM: fixed peptide concentration 10 μM.
[3] abbreviates: read-out: Binding affinity (FP) at 0.1 μM.

Sequence of CC2-LZ domain of NEMO (O88522 242-343 limits assumed): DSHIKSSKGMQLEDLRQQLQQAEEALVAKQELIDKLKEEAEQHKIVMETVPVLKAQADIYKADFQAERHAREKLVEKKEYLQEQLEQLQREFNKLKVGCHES
Protocol for CC2-LZ domain of NEMO: Measurements were performed on a Tecan infinite F500 equipped with polarizing filters and using excitation and emission wavelengths at 485 nm and 535 nm, respectively. Anisotropy data were calculated using the Magellan software version 6.5. Prior experiments, the mouse CC2-LZ was extensively dialyzed in binding buffer containing 20 mM HEPES pH 7.4, 100 mM NaCl, and 0.05% P20 detergent (v/v). All experiments were performed in a 384 well plate (vol 25 μl) at room temperature. The BODIPY®-labeled peptide concentrations were fixed at 0.1 or 10 μM whereas the CC2-LZ concentration varied from 0 to 100 μM. Reference calibrated at 22 mP, was based on the fluorescence of the peptide alone. Each experimental binding curve was determined from at least 10 independent concentration points. The G-factor was calculated as previously described in Agou et al. [7], with a value of 0.75, which was observed constant within 5% upon all titrations. For analysis, the blank value corresponding to the value of buffer alone, was subtracted from all titration data.
All NEMO peptides were conjugated to an extra N-terminal cysteine with the fluorophore BODIPY® or FITC to determine their binding affinity for the CC2-LZ domain of NEMO (also called NOA or UBAN) by fluorescence polarization. For each peptide titration, various concentration of the target ranging from 0 to 100 μM and a fixed concentration of peptide at 0.1 or 10 μM were used at 25° C. […] For these reasons, all further titration experiments were performed with a fixed peptide concentration of 0.1 μM unless otherwise indicated.

`CC(=O)N[C@@H](CSC1CC(=O)N(CCNC(=O)CCC2=[N+]3C(=Cc4c(C)cc(C)n4[B-]3(F)F)C=C2)C1=O)C(=O)N[C@@H](CCC(=O)O)C(=O)N[C@@H](CC(C)C)C(=O)N[C@@H](C)C(=O)N[C@@H](CCC(N)=O)C(=O)N[C@@H](CC(C)C)C(=O)N[C@@H](CCC(N)=O)C(=O)N[C@@H](C)C(=O)N[C@@H](CCC(=O)O)C(=O)N[C@@H](CC(C)C)C(=O)N[C@@H](CC(=O)O)C(=O)N[C@]1(C)CCCCCCC=CCCC[C@@](C)(C(=O)N[C@@H](CC(=O)O)C(=O)N[C@@H](CCCCN)C(=O)N[C@@H](CCC(N)=O)C(=O)N[C@@H](CCC(=O)O)C(=O)N[C@@H](CC(C)C)C(=O)N[C@@H](CCCNC(=N)N)C(=O)N[C@@H](CCCCN)C(=O)N[C@@H](CC(C)C)C(N)=O)NC(=O)[C@H](CCC(N)=O)NC(=O)[C@H](C(C)C)NC(=O)[C@H](C(C)C)NC(=O)[C@H](C)NC(=O)[C@H](CCC(N)=O)NC(=O)[C@H](C(C)C)NC1=O` (single isomer, unassigned) [Co-SAHN I307-A314 (A), ELAQLQAELDXVQAVVQXDKQELRKL, reference compound]: in series [1], the ΔS entry is reported as “A: −24 - cal. mol^−1.K^−1”, the Tm result is “A: 21 - B: C°” and the ΔH result was “A: −6970 - (cal. mol)^−1”. In series [2], the “α-helical content at 1° C.” value is recorded as “A: 45% -”. At CC2-LZ domain of NEMO (setting [3]), the Kd was over 1850 µM.
In the case of `CC[C@H](C)[C@H](NC(=O)[C@H](CCCCN)NC(=O)[C@@H](NC(=O)[C@H](CCC(N)=O)NC(=O)[C@H](CCCNC(=N)N)NC(=O)[C@H](CSC1CC(=O)N(CCNC(=O)CCC2=[N+]3C(=Cc4c(C)cc(C)n4[B-]3(F)F)C=C2)C1=O)NC(C)=O)[C@@H](C)CC)C(=O)N[C@@H](Cc1c[nH]c2ccccc12)C(=O)N[C@@H](Cc1ccccc1)C(=O)N[C@@H](CCC(N)=O)C(=O)N[C@@H](CC(N)=O)C(=O)N[C@@H](CCCNC(=N)N)C(=O)N[C@@H](CCCNC(=N)N)C(=O)N[C@@H](CCSC)C(=O)N[C@@H](CCCCN)C(=O)N[C@@H](Cc1c[nH]c2ccccc12)C(=O)N[C@@H](CCCCN)C(=O)N[C@@H](CCCCN)C(=O)N[C@@H](CC(C)C)C(=O)N[C@@H](CCCCN)C(=O)N[C@@H](C)C(=O)N[C@@H](CCC(N)=O)C(=O)N[C@@H](C)C(=O)N[C@]1(C)CCCCCCC=CCCC[C@@](C)(C(=O)N[C@@H](C)C(=O)N[C@@H](CCC(=O)OC)C(=O)N[C@@H](CCCNC(=N)N)C(=O)N[C@@H](Cc2c[nH]cn2)C(=O)N[C@@H](C)C(=O)N[C@@H](CCCNC(=N)N)C(=O)N[C@@H](CCC(=O)OC)C(=O)N[C@@H](CCCCN)C(N)=O)NC(=O)[C@H](Cc2ccccc2)NC(=O)[C@H](CCCNC(=N)N)NC(=O)[C@H](C)NC(=O)[C@H](CCCCN)NC(=O)[C@H](Cc2ccc(O)cc2)NC(=O)[C@H]([C@@H](C)CC)NC1=O` (stereo partly drawn) [A-UBI-SAHN D306-Q313 OMe, RQIKIWFQNRRMKWKKLKAQAX2IYKARFX5AX7RHARX9K] (Ac-C(BODIPYFLEthylmaleimide)RQIKIWFQNRRMKWKKLKAQA[R8]IYKARF[S5]AE(OMe)RHARE(OMe)K-NH2; staple 23-30), on CC2-LZ domain of NEMO (peptides with antennapedia), the Kd was found to be 0.06 ± 0.01 µM.
As for `CC[C@H](C)[C@@H]1NC(=O)[C@](C)(NC(=O)[C@H](C)NC(=O)[C@H](CCC(N)=O)NC(=O)[C@H](C)NC(=O)[C@H](CCCCN)NC(=O)[C@H](CC(C)C)NC(=O)[C@H](CSC2CC(=O)N(CCNC(=O)CCC3=[N+]4C(=Cc5c(C)cc(C)n5[B-]4(F)F)C=C3)C2=O)NC(C)=O)CCCCCCC=CCCC[C@@](C)(C(=O)N[C@@H](C)C(=O)N[C@@H](CCC(=O)O)C(=O)N[C@@H](CCCNC(=N)N)C(=O)N[C@@H](Cc2c[nH]cn2)C(=O)N[C@@H](C)C(=O)N[C@@H](CCCNC(=N)N)C(=O)N[C@@H](CCC(=O)O)C(=O)N[C@@H](CCCCN)C(N)=O)NC(=O)[C@H](Cc2ccccc2)NC(=O)[C@H](CCCNC(=N)N)NC(=O)[C@H](C)NC(=O)[C@H](CCCCN)NC(=O)[C@H](Cc2ccc(O)cc2)NC1=O` (single isomer, unassigned) [UBI-SAHN D306-Q313 (B)], in series [1], the ΔS entry was “B: −17 cal. mol^−1.K^−1”, the Tm was 35 ± 0.3 C° and the ΔH result is “B: −5290 (cal. mol)^−1”. Besides, the “α-helical content at 1° C.” value in series [2] is “B: 76%”. Moreover, the “Binding affinity (FP) at 10 μM” value at CC2-LZ domain of NEMO is “Very weak”.
In the case of `CC(=O)N[C@@H](CSC1CC(=O)N(CCNC(=O)CCC2=[N+]3C(=Cc4c(C)cc(C)n4[B-]3(F)F)C=C2)C1=O)C(=O)N[C@@H](CCC(=O)O)C(=O)N[C@@H](CC(C)C)C(=O)N[C@@H](C)C(=O)N[C@@H](CCC(N)=O)C(=O)N[C@@H](CC(C)C)C(=O)N[C@@H](CCC(N)=O)C(=O)N[C@@H](C)C(=O)N[C@@H](CCC(=O)O)C(=O)N[C@@H](CC(C)C)C(=O)N[C@@H](CC(=O)O)C(=O)N[C@]1(C)CCCCCCC=CCCC[C@@](C)(C(=O)N[C@@H](CC(=O)O)C(=O)N[C@@H](CCCCN)C(=O)N[C@@H](CCC(N)=O)C(=O)N[C@@H](CCC(=O)O)C(=O)N[C@@H](CC(C)C)C(=O)N[C@@H](CCCNC(=N)N)C(=O)N[C@@H](CCCCN)C(=O)N[C@@H](CC(C)C)C(N)=O)NC(=O)[C@H](CCC(N)=O)NC(=O)[C@H](C(C)C)NC(=O)[C@H](C(C)C)NC(=O)[C@H](C)NC(=O)[C@H](CCC(N)=O)NC(=O)[C@H](C(C)C)NC1=O` (single isomer, unassigned) [Co-SAHN I307-A314 (B), ELAQLQAELDXVQAVVQXDKQELRKL, reference compound], in series [1], the ΔS entry is listed as “B: −24 cal. mol^−1.K^−1”, the Tm came to 32 ± 0.3 C° and the ΔH result is reported as “B: −7200 (cal. mol)^−1”. Further, the “α-helical content at 1° C.” value in series [2] is reported as “B: 58%”. Besides, on CC2-LZ domain of NEMO (setting [3]), the Kd is over 800 µM.
In the case of `CC[C@H](C)[C@@H]1NC(=O)[C@](C)(NC(=O)[C@H](C)NC(=O)[C@H](CCC(N)=O)NC(=O)[C@H](C)NC(=O)[C@H](CCCCN)NC(=O)[C@H](CC(C)C)NC(=O)[C@H](CSC2CC(=O)N(CCNC(=O)CCC3=[N+]4C(=Cc5c(C)cc(C)n5[B-]4(F)F)C=C3)C2=O)NC(C)=O)CCCCCCC=CCCC[C@@](C)(C(=O)N[C@@H](C)C(=O)N[C@@H](CCC(=O)O)C(=O)N[C@@H](CCCNC(=N)N)C(=O)N[C@@H](Cc2c[nH]cn2)C(=O)N[C@@H](C)C(=O)N[C@@H](CCCNC(=N)N)C(=O)N[C@@H](CCC(=O)O)C(=O)N[C@@H](CCCCN)C(N)=O)NC(=O)[C@H](Cc2ccccc2)NC(=O)[C@H](CCCNC(=N)N)NC(=O)[C@H](C)NC(=O)[C@H](CCCCN)NC(=O)[C@H](Cc2ccc(O)cc2)NC1=O` (single isomer, unassigned) [UBI-SAHN D306-Q313 (A)], in series [1], the ΔS entry was “A: −16 - cal. mol^−1.K^−1”, the Tm stood at 35 ± 0.3 C° and the ΔH result is “A: −4800 - (cal. mol)^−1”. Besides, the “α-helical content at 1° C.” value in series [2] is “A: 75% -”. Moreover, the Kd on CC2-LZ domain of NEMO (setting [3]) came to 34 ± 6 µM. Further, at CC2-LZ domain of NEMO, the “Binding affinity (FP) at 10 μM” value was “Very weak”.
Take `CC[C@H](C)[C@H](NC(=O)[C@H](CC(=O)O)NC(=O)[C@H](C)NC(=O)[C@H](CCC(N)=O)NC(=O)[C@H](C)NC(=O)[C@H](CCCCN)NC(=O)[C@H](CC(C)C)NC(=O)[C@H](CCCCN)NC(=O)[C@H](CCCCN)NC(=O)[C@H](Cc1c[nH]c2ccccc12)NC(=O)[C@H](CCCCN)NC(=O)[C@H](CCSC)NC(=O)[C@H](CCCNC(=N)N)NC(=O)[C@H](CCCNC(=N)N)NC(=O)[C@H](CC(N)=O)NC(=O)[C@H](CCC(N)=O)NC(=O)[C@H](Cc1ccccc1)NC(=O)[C@H](Cc1c[nH]c2ccccc12)NC(=O)[C@@H](NC(=O)[C@H](CCCCN)NC(=O)[C@@H](NC(=O)[C@H](CCC(N)=O)NC(=O)[C@H](CCCNC(=N)N)NC(=O)[C@H](CSC1CC(=O)N(CCNC(=O)CCC2=[N+]3C(=Cc4c(C)cc(C)n4[B-]3(F)F)C=C2)C1=O)NC(C)=O)[C@@H](C)CC)[C@@H](C)CC)C(=O)N[C@@H](Cc1ccc(O)cc1)C(=O)N[C@@H](CCCCN)C(=O)N[C@@]1(C)CCCC=CCCC[C@@](C)(C(=O)N[C@@H](CCC(=O)O)C(=O)N[C@@H](CCCNC(=N)N)C(=O)N[C@@H](Cc2c[nH]cn2)C(=O)N[C@@H](C)C(=O)N[C@@H](CCCNC(=N)N)C(=O)N[C@@H](CCC(=O)O)C(=O)N[C@@H](CCCCN)C(N)=O)NC(=O)[C@H](CCC(N)=O)NC(=O)[C@H](Cc2ccccc2)NC(=O)[C@H](CCCNC(=N)N)NC1=O` (stereo partly drawn) [A-UBI-SAHN A310-A314, RQIKIWFQNRRMKWKKLKAQADIYKX4RFQX6ERHAREK] (Ac-C(BODIPYFLEthylmaleimide)RQIKIWFQNRRMKWKKLKAQADIYK[S5]RFQ[S5]ERHAREK-NH2; staple 27-31): the “α-helical content at 1° C.” value in series [2] was 57%. Also, at CC2-LZ domain of NEMO (peptides with antennapedia, read-out: KD), the Kd came to 0.2 µM.
